Laboratory results taken from patent US20240398767A1, “INHIBITORS OF THE MTDH-SND1 PROTEIN COMPLEX FOR CANCER THERAPY” (The Trustees of Princeton University, priority 2021, published 2024).

Experiments:
[1] = tested on: Wnt;UBC-CreERT+/-;Mtdhfl/fl tumor cells; assay: Tumorsphere assay, Wnt;UBC-CreERT+/-;Mtdhfl/fl tumor cells; type: cell-based, mouse; conditions: with or without 4-OHT pre-treatment
Procedure: (§1) For FIGS. 11B-11E, 50 k per well of cells were seeded and treated with indicated compounds the next day. 5 days after treatment, sphere number and size were assessed and normalized to vehicle control group. Data represent mean±SEM. n=3 independent experiments. Significance determined by one-way ANOVA analysis with Dunnett's test for multiple comparisons.
FIG. 11D, Wnt;UBC-Cre^ERT+/−;Mtdh^fl/fl tumor cells without 5 days of 0.02 μg/ml 4-OHT pre-treatment were subjected to the tumorsphere assay.
FIG. 11E, Wnt;UBC-Cre^ERT+/−;Mtdh^fl/fl tumor cells with 5 days of 0.02 μg/ml 4-OHT pre-treatment were subjected to the tumorsphere assay.

Caco-2 cells = assay: Caco-2 cell based permeability test; type: in vitro ADME; conditions: 5 μM, A-to-B and B-to-A, 120 min
Procedure: FIG. 11A, Caco-2 cells were employed to test cell permeability of C26-A2 and A6. 5 μM of compounds were dosed on both apical side (A-to-B) and basolateral side (B-to-A). Samples were taken from the donor and receiver chambers at 120 min after treatment. All samples were assayed by LC-MS/MS using electrospray ionization. The apparent permeability (Papp) and percent recovery were calculated.
C26s cell permeability test. The cell permeability of C26-A2 and A6 were determined with monolayer of Caco-2 cells with both the apical-to-basolateral (A-to-B) and basolateral-to-apical (B-to-A) directions by Absorption Systems LLC Detailed protocol can be found in previous studies.

[2] = tested on: PyMT tumor cells with Mtdh KO or Snd1 KD; assay: Tumorsphere assay, PyMT;UBC-CreERT+/-;Mtdhfl/fl cells with Mtdh KO or Snd1 KD; type: cell-based, mouse; conditions: Mtdh KO (4-OHT pre-treatment) or Snd1 KD
Procedure: FIG. 4D, PyMT;UBC-Cre^ERT+/−;Mtdh^fl/fl cells with 5 days of 0.02 μg/ml 4-OHT pre-treatment was employed for tumorsphere assay. 50 k per well of cells were seed and treated with indicated compounds the next day. 5 days after treatment, sphere number and size were assessed and normalized to vehicle control group. Data represent mean±SEM. n=3 independent experiments. Significance determined by one-way ANOVA analysis with Sidak's test for multiple comparisons.
FIG. 4E, PyMT;UBC-Cre^ERT+/−;Mtdh^fl/fl cells with or without SND1 knockdown, or without 5 days of 0.02 μg/ml 4-OHT pre-treatment were subjected to the tumorsphere assay and then treated with 200 μM of C26-A6 similar to FIG. 4C. Data represent mean SEM. n=3 independent experiments. Significance determined by two tailed Student's t-test.
FIG. 4F, PyMT;UBC-Cre^ERT+/−;Mtdh^fl/fl cells with or without SND1 knockdown, or with 5 days of 0.02 μg/ml 4-OHT pre-treatment were subjected to the tumorsphere assay and then treated with 200 μM of C26-A6 similar to FIG. 4C. Data represent mean±SEM. n=3 independent experiments. Significance determined by two tailed Student's t-test.
Next, PyMT; UBC-Cre^ERT+/−;Mtdh^fl/fl tumor cells: 1) with or without Mtdh pre-depletion; 2) with or without endogenous Snd1 knockdown; or 3) in combination were employed for tumorsphere assay followed by the compound treatments. […]

[3] = tested on: PyMT;UBC-CreERT+/-;Mtdhfl/fl wild type tumor cells; assay: Tumorsphere assay, PyMT;UBC-CreERT+/-;Mtdhfl/fl wild type tumor cells; type: cell-based, mouse; conditions: 5 days after treatment
Procedure: FIG. 4C, PyMT;UBC-Cre^ERT+/−;Mtdh^fl/fl cells without 5 days of 0.02 μg/ml 4-OHT pre-treatment was employed for tumorsphere assay. 50 k per well of cells were seed and treated with indicated compounds the next day. 5 days after treatment, sphere number and size were assessed and normalized to vehicle control group. Data represent mean±SEM. n=3 independent experiments. Significance determined by one-way ANOVA analysis with Sidak's test for multiple comparisons.
Next, PyMT; UBC-Cre^ERT+/−;Mtdh^fl/fl tumor cells: 1) with or without Mtdh pre-depletion; 2) with or without endogenous Snd1 knockdown; or 3) in combination were employed for tumorsphere assay followed by the compound treatments. […] The results were confirmed using C3 and Wnt;UBC-Cre^ERT+/−;Mtdh^fl/fl tumorspheres (FIG. 11B-11E). Taken together, these findings confirmed that the anti-tumor effect of C26-A2 and A6 is dependent on their specific effect on blocking MTDH-SND1 interaction.

[4] = tested on: C3;UBC-CreERT+/-;Mtdhfl/fl tumor cells; assay: Tumorsphere assay, C3;UBC-CreERT+/-;Mtdhfl/fl tumor cells; type: cell-based, mouse; conditions: with or without 4-OHT pre-treatment
Procedure: as §1
FIG. 11B, C3; UBC-Cre^ERT+/−;Mtdh^fl/fl tumor cells (FIGS. 11D, 11E) without 5 days of 0.02 μg/ml 4-OHT pre-treatment were subjected to the tumorsphere assay.
FIG. 11C, C3; UBC-Cre^ERT+/−;Mtdh^fl/fl tumor cells with 5 days of 0.02 μg/ml 4-OHT pre-treatment were subjected to the tumorsphere assay.

[5] = biological target: T1, MTDH-SND1 interaction (split-luc) in SCP28 cells (Homo sapiens, UniProt Q7KZF4); assay: Split-luciferase reporter in living SCP28 cells; type: cell-based; conditions: for blocking efficiency over time (stability of the compounds in cells): 100 μM, 5 days after the addition; for split-luc activity in living cells: multiple doses, 30 min after treatment
T1 construct: SND1-NLuc and CLuc-MTDH flanked by BamH 1 and Not 1 restriction sites were inserted into pcDNA3.1 and pRVPTO (retrovrial) vectors; expressed in transfected cells; host or cells: SCP28 cells stably transduced with pRVPTO retroviral vectors (packaged in H29 cells)
Procedure: (§2) FIG. 4A, SCP28 cells that stably express split- or linked-luciferase components were treated with multiple doses of C26-A2 or C26-A6. 30 minutes (min) after treatment, culture media was removed and the luciferase activity in the cells was measured. Data represent mean±SEM. n=3 independent experiments.
FIG. 4B, The same cells as in FIG. 4A were treated with 100 μM of the compounds for indicated days, and were harvested to measure the luciferase activity. Data represent mean±SEM. n=3 independent experiments.
(§3) C26s inhibit breast cancer progression and metastasis. C26-A2 and A6 were picked for the functional test. To this end, it was tested whether C26-A2 and A6 could inhibit breast cancer progression. […] Next, SCP28 breast cancer cells that were engineered to express split- or linked-luciferase reporter were treated with C26-A2 or A6.

[6] = biological target: T2, linked-luc in SCP28 cells (Photinus pyralis, UniProt P08659, INS416[…]); assay: Linked-luciferase reporter in living SCP28 cells; type: cell-based; conditions: multiple doses, 30 min after treatment
T2 construct: NLuc and CLuc were linked with 3 repeats of GGGS, flanked by the same restriction sites, and inserted into the same vectors; expressed in transfected cells; host or cells: SCP28 cells stably transduced with pRVPTO retroviral vector
Procedure: as §2, §3

T1 sequence (Q7KZF4 with tags, fused parts or gaps): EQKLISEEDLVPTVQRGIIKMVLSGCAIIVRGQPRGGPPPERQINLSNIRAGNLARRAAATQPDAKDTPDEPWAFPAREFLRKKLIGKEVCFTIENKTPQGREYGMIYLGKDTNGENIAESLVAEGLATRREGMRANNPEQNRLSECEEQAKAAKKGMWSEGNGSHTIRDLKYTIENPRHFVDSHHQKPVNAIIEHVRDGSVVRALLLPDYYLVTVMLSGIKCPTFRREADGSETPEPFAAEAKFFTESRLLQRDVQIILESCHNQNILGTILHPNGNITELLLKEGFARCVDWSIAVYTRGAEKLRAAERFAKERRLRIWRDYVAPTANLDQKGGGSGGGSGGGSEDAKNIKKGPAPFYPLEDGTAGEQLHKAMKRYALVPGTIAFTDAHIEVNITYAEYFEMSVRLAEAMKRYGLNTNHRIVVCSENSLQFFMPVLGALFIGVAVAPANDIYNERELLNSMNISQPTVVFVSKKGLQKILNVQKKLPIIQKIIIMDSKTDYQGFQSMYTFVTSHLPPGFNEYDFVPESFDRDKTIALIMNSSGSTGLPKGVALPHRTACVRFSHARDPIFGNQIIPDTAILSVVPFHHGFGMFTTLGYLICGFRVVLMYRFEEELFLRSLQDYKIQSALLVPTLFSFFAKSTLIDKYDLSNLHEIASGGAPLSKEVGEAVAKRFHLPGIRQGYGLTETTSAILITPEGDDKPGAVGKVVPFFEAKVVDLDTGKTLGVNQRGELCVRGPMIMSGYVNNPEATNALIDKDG
T2 sequence (P08659 with tags, fused parts or gaps INS416[withheld]): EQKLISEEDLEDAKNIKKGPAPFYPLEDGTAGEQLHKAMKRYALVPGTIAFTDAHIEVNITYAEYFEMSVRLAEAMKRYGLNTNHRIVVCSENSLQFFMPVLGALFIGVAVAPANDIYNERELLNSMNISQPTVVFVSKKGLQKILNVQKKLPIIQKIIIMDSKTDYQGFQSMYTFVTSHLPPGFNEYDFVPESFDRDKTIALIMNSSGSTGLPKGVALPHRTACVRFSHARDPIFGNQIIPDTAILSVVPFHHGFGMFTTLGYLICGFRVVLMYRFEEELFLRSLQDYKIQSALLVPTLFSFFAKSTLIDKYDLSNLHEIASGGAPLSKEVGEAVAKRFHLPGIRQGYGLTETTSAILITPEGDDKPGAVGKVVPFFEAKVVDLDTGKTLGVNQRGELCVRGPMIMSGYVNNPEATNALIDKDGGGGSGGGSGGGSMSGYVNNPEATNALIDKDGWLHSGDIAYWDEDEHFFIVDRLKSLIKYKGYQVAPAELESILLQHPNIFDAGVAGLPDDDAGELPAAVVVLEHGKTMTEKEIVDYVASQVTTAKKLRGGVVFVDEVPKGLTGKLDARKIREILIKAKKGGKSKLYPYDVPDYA

Structure (SMILES) | tumorsphere formation (sphere number and size) [1] | cell permeability (Caco-2 cells) | tumorsphere formation (sphere number and size) [2] | tumorsphere formation (sphere number and size) [3] | tumorsphere formation (sphere number and size) [4] | blocking efficiency over time (stability of the compounds in cells) [5] | split-luc activity in living cells [5] | linked-luc activity in living cells [6]
COc1ccc(Cl)cc1S(=O)(=O)Nc1cccn2ncnc12 [Analog C26-A2] | confirmed | highly permeable | no effects | inhibited spheres | confirmed | not significantly changed | inhibited split-luc activity in living cells in a dose dependent manner | without significantly affecting linked-luc activity
COc1ccc(Cl)cc1S(=O)(=O)Nc1cccn2nc(C)nc12 [Analog C26-A6] | confirmed | highly permeable | no effects | inhibited spheres | confirmed | not significantly changed | inhibited split-luc activity in living cells in a dose dependent manner | without significantly affecting linked-luc activity
